The source of these data is paper PMC8802806, “Synthesis and Antitumor Activity of Erlotinib Derivatives Linked With 1,2,3-Triazole” (Frontiers in Pharmacology, 2022).

For series [1], the system named is HeLa cells. Conditions: cited from earlier work.
For series [2], the system named is HeLa cells. Briefly: Cell antiproliferative activity assay (CCK8). It counts as cell-based, human. Conditions: for inhibition at 0.25 µM: 250 nM; for inhibition at 0.5 µM: 500 nM; for inhibition at 1 µM: 1000 nM; for inhibition at 2 µM: 2000 nM; for inhibition at 4 µM: 4000 nM; for inhibition at 8 µM: 8000 nM; for inhibition at 16 µM: 16000 nM. Here is the method: Cell antiproliferative activity was evaluated by the Cell Counting Kit-8 (CCK8, DOJINDO, Japan) assay. The cells were seeded at a density of 2,000 cells per well into 96-well microplate in 100 μl of growth medium. Cells were incubated at 37°C and 5% CO2 overnight. The next day, 100 μl per well of diluted inhibitor in growth medium was added with the final concentration from 0.1 nM to 100 μM. The cells were treated with DMSO as control. A series of dilutions are made in 0.1% DMSO in assay medium so that the final concentration of DMSO is 0.1% in all of treatments. Cells were incubated at 37°C and 5% CO2 for 48 h. Then, 10 μl of CCK8 was added to each well. The plates were incubated at 37°C for 2 h; after that, the plates were recorded by measuring absorbance at 450 nm with the reference wavelength of 630 nm using an EnVision Multilabel Reader (PerkinElmer). The IC50 values were calculated using GraphPad Prism 6.0 software and determined by the concentration causing a half-maximal percent activity. All assays were conducted with three parallel samples and three repetitions.

For series [3], the system named is HeLa cells. The series can be described thus: Flow cytometry detection for cell apoptosis (Annexin V/PI). Conditions: single samples; for Q3: FITC-A+ , PE-A- Freq. of Parent / Q2: FITC-A+ , PE-A+ Freq. of Parent: 72 h, Annexin V/PI. It counts as cell-based, human. Here is the method:
Cell-apoptosis analysis was carried out by flow cytometry using the Annexin V/PI apoptosis kit (Solarbio, China) according to the manufacturer’s manual. Briefly, HeLa (5 × 10^4/well) cells were seeded in 12-well plates for 24 h and then treated with 0.1% DMSO (as control) or various concentrations of compounds 4d, 4k, and 4l for 72 h, respectively. Cells were harvested, washed with PBS, and then incubated with 100 μl of 1 × Annexin V binding buffer containing 1 μl FITC Annexin V for 10 min at RT in the dark. Cells were incubated for another 5 min at room temperature (RT) in the dark after 1 μl PI was added. PBS (200 µl) was added to each tube for flow cytometry analysis (BriCyte E6). The percentages of apoptotic cells were analyzed using FlowJo soft.

[4] abbreviates: chromenocarbazole tethered 1,2,3-triazoles, ref Chavan et al., 2019, read-out: IC50 antiproliferative activity in HeLa cells.
Where [5] appears, read: amidino 2-substituted benzimidazoles linked to 1,2,3-triazoles, ref Raic-Malic et al., read-out: IC50 antiproliferation activities against HeLa cells.
The mark [6] stands for this setting: Homo sapiens, HeLa, 48 h, HeLa cells, CCK8, 48 h, mean ± SD, n = 3, read-out: IC50 (μM) HeLa.
[7] abbreviates: Homo sapiens, HeLa, HELA 2000cells/well, supplement DataSheet2, Repeat1, read-out: IC50 Repeat1.
Setting [8] is: Homo sapiens, HeLa, HELA 2000cells/well, supplement DataSheet2, Repeat 2, read-out: IC50 Repeat 2.
Setting [9] is: Homo sapiens, HeLa, HELA 2000cells/well, supplement DataSheet2, mean of two repeats ± SD, read-out: IC50 mean±SD.
[10] abbreviates: Homo sapiens, HELA 2000cells/well, Repeat1, read-out: Inhibition (%) Repeat1.
[11] abbreviates: Homo sapiens, HELA 2000cells/well, Repeat2, read-out: Inhibition (%) Repeat2.

Values joined by “and” are separate entries in the source; they are usually repeats but may differ in a detail not shown here. Identical values can stand only once. Like-named read-outs stand apart in the source and are kept apart here.

`Cc1ccc(Cn2cc(CN3C(=O)C4(C(C#N)=C(N)Oc5c4ccc4[nH]c6ccccc6c54)c4ccccc43)nn2)cc1` (stereo not shown) [6b]: the IC50 in series [1] (setting [4]) is 4.05 µM.
Turning to `N#CC1=C(N)Oc2c(ccc3[nH]c4ccccc4c23)C12C(=O)N(Cc1cn(Cc3ccc(C(F)(F)F)cc3)nn1)c1ccccc12` (stereo not shown) [6g], in series [1] (setting [4]), the IC50 is 3.54 µM.
For `N#CC1=C(N)Oc2c(ccc3[nH]c4ccccc4c23)C12C(=O)N(Cc1cn(Cc3ccc(Cl)cc3)nn1)c1ccc(Br)cc12` (stereo not shown) [6s], in series [1] (setting [4]), the IC50 is 3.83 µM.
As for `Cc1ccc(Cn2cc(CN3C(=O)C4(C(C#N)=C(N)Oc5c4ccc4[nH]c6ccccc6c54)c4cc(F)ccc43)nn2)cc1` (stereo not shown) [6u], the IC50 in series [1] (setting [4]) was 3.35 µM.
`CC(C)NC(=N)c1ccc2[nH]c(-c3ccc(OCc4cn(Cc5ccc(Cl)cc5)nn4)cc3)nc2c1` [10c]: the IC50 in series [1] (setting [5]) was 17.5 µM.
Regarding `c1ccc(Cn2cc(COc3ccc(-c4nc5cc(C6=NCCN6)ccc5[nH]4)cc3)nn2)cc1` [11f], in series [1] (setting [5]), the IC50 is 6.63 µM.
Regarding `COc1ccc2c(-n3cc(-c4cc(OC)c(OC)c(OC)c4)nn3)c(C(=O)Nc3ccccc3)oc2c1` [17 g, 6-methoxy-N-phenyl-3-[4-(3,4,5-trimethoxyphenyl)-1H-1,2,3-triazol-1-yl] benzofuran-2 carboxamide], the IC50 in series [1] (ref Qi et al., 2020, read-out: IC50 antiproliferative activities against HeLa cells) was 0.73 ± 0.67 µM.
In turn, `COCCOc1cc2ncnc(Nc3cccc(-c4cn(-c5ccccc5Br)nn4)c3)c2cc1OCCOC` [Compound 4i, [6,7-Bis-(2-methoxy-ethoxy)-quinazolin-4-yl]-{3-[1-(2-bromo-phenyl)-1H-[1,2,3]triazol-4-yl]-phenyl}-amine] registered a melting point of 93 to 97 °C. For the same compound, the IC50 in series [2] (HeLa cells, CCK8, 48 h, mean ± SD, n = 3, read-out: IC50 (μM) HeLa) came to 4.36 ± 0.15 µM. For the same compound, the IC50 in series [2] (setting [6]) is 4.16 µM. The IC50 in series [2] (setting [7]) was determined as 4.41 µM. In addition, the IC50 in series [2] (setting [8]) came to 4.3 µM. Besides, in series [2] (setting [9]), the IC50 came out at 4.36 ± 0.054 µM. Also, in series [2] (setting [10]), the inhibition at 0.25 µM worked out at 2.62%, the inhibition at 0.5 µM stood at 6.42%, the inhibition at 1 µM worked out at 9.04% and the inhibition at 2 µM was determined as 15.2%. In series [2] (setting [10]), the inhibition at 4 µM is 41.6%, the inhibition at 8 µM amounted to 83.4% and the inhibition at 16 µM stood at 88.1%. Moreover, in series [2] (setting [11]), the inhibition at 0.25 µM worked out at 0%, the inhibition at 0.5 µM was 5.74%, the inhibition at 1 µM worked out at 6.59% and the inhibition at 2 µM was determined as 17.7%. In series [2] (setting [11]), the inhibition at 4 µM was 42.6%, the inhibition at 8 µM was 83.9% and the inhibition at 16 µM amounted to 88.9%.
`COCCOc1cc2ncnc(Nc3cccc(-c4cn(-c5ccc(Br)cc5)nn4)c3)c2cc1OCCOC` [Compound 4j, [6,7-Bis-(2-methoxy-ethoxy)-quinazolin-4-yl]-{3-[1-(4-bromo-phenyl)-1H-[1,2,3]triazol-4-yl]-phenyl}-amine] gave a melting point of 105 to 108 °C. Moreover, in series [2] (setting [6]), the IC50 is 12.2 ± 1 µM. In series [2] (setting [7]), the IC50 amounted to 11.3 µM. Besides, the IC50 in series [2] (setting [8]) came out at 13.3 µM. Besides, in series [2] (setting [9]), the IC50 is 12.2 ± 1.01 µM. For the same compound, in series [2] (setting [10]), the inhibition at 0.25 µM was determined as 0%, the inhibition at 0.5 µM was determined as 0.0873%, the inhibition at 1 µM amounted to 0.96% and the inhibition at 2 µM is 4.01%. In series [2] (setting [10]), the inhibition at 4 µM was 8.03%, the inhibition at 8 µM is 26.2% and the inhibition at 16 µM came out at 73.6%. In addition, in series [2] (setting [11]), the inhibition at 0.25 µM is 2.88%, the inhibition at 0.5 µM worked out at 2.97%, the inhibition at 1 µM is 4.36% and the inhibition at 2 µM turned out to be 4.89%. Also, in series [2] (setting [11]), the inhibition at 4 µM was found to be 8.64%, the inhibition at 8 µM is 17.7% and the inhibition at 16 µM worked out at 63.3%.
In turn, `COCCOc1cc2ncnc(Nc3cccc(-c4cn(-c5cccc([N+](=O)[O-])c5)nn4)c3)c2cc1OCCOC` [Compound 4m, [6,7-Bis-(2-methoxy-ethoxy)-quinazolin-4-yl]-{3-[1-(3-nitro-phenyl)-1H-[1,2,3]triazol-4-yl]-phenyl}-amine] returned a melting point of 98 to 101 °C. Further, the IC50 in series [2] (setting [6]) was 3.79 ± 0.1 µM. Further, in series [2] (setting [7]), the IC50 came to 3.89 µM. Besides, in series [2] (setting [8]), the IC50 came out at 3.69 µM. The IC50 in series [2] (setting [9]) worked out at 3.79 ± 0.103 µM. In addition, in series [2] (setting [10]), the inhibition at 0.25 µM worked out at 0%, the inhibition at 0.5 µM was 3.48%, the inhibition at 1 µM turned out to be 8.91% and the inhibition at 2 µM was found to be 42.2%. Moreover, in series [2] (setting [10]), the inhibition at 4 µM is 54.2%, the inhibition at 8 µM came out at 67.5% and the inhibition at 16 µM came to 77.1%. In series [2] (setting [11]), the inhibition at 0.25 µM was determined as 7.86%, the inhibition at 0.5 µM was 5.51%, the inhibition at 1 µM came out at 15.1% and the inhibition at 2 µM turned out to be 42.1%. In addition, in series [2] (setting [11]), the inhibition at 4 µM amounted to 56.2%, the inhibition at 8 µM was found to be 66.5% and the inhibition at 16 µM was 77.2%.
On to `CCOc1cccc(-n2cc(-c3cccc(Nc4ncnc5cc(OCCOC)c(OCCOC)cc45)c3)nn2)c1` [Compound 4n, [6,7-Bis-(2-methoxy-ethoxy)-quinazolin-4-yl]-{3-[1-(3-ethoxy-phenyl)-1H-[1,2,3]triazol-4-yl]-phenyl}-amine], for which the melting point was 110 to 114 °C. Moreover, the “Q3: FITC-A+ , PE-A- Freq. of Parent” value in series [3] (3 μM) is 0.75% and 1.15% and 1.24%. In series [3] (6 μM), the “Q2: FITC-A+ , PE-A+ Freq. of Parent” value was found to be 21.9%; the “Q3: FITC-A+ , PE-A- Freq. of Parent” value is 5.30% and 1.36% and 0.76%; the “Q2+Q3 (as fraction)” value is 0.272 and 0.3116 and 0.2626. For the same compound, in series [3] (12 μM), the “Q2: FITC-A+ , PE-A+ Freq. of Parent” value was found to be 61.9%; the “Q3: FITC-A+ , PE-A- Freq. of Parent” value was 2.53% and 1.19% and 1.05%; the “Q2+Q3 (as fraction)” value was 0.6443 and 0.5879 and 0.6565. Moreover, in series [2] (setting [6]), the IC50 amounted to 8.21 ± 1.05 µM. In addition, the IC50 in series [2] (setting [7]) was determined as 7.21 µM. Also, the IC50 in series [2] (setting [8]) was 9.31 µM. Further, the IC50 in series [2] (setting [9]) is 8.21 ± 1.05 µM. Also, in series [2] (setting [10]), the inhibition at 0.25 µM amounted to 0%, the inhibition at 0.5 µM came out at 4.33%, the inhibition at 1 µM is 7.26% and the inhibition at 2 µM is 12.8%. In addition, in series [2] (setting [10]), the inhibition at 4 µM amounted to 31.2%, the inhibition at 8 µM was 51.9% and the inhibition at 16 µM turned out to be 77.1%. Also, in series [2] (setting [11]), the inhibition at 0.25 µM was found to be 2.69%, the inhibition at 0.5 µM came out at 4.33%, the inhibition at 1 µM turned out to be 6.45% and the inhibition at 2 µM turned out to be 10.8%. Also, in series [2] (setting [11]), the inhibition at 4 µM turned out to be 18.5%, the inhibition at 8 µM stood at 45.5% and the inhibition at 16 µM is 69.6%.
